Assay results as given in US11478466B2, “Small molecule promoting osteoblast differentiation” (Cornell University, priority 2019, dated 2022).

What was measured:
[1] = test system: alkaline phosphatase (ALP); test: ALP expression staining in C2C12 cells; format: cell-based, mouse; settings: for ALP expression by staining: C2C12, 2 days, 10 μM
Method: C2C12 cells were treated for 2 days with 10 μM DIPQUO or structural analogs, 1 ng/ml rhBMP4, or with inhibitors as noted in figure legends, and then fixed briefly in 70% acetone/10% formaldehyde/20% citrate. Staining was achieved using the leukocyte alkaline phosphatase kit (Sigma 86R-1KT) according to the manufacturer's instructions. Expression of ALP was confirmed and quantified by flow cytometric analysis, using an Accuri C6 flow cytometer. Briefly, control- or DIPQUO-treated C2C12 cells were detached and harvested on day 2 using PBS-based enzyme-free cell detachment solution (ThermoFisher). 2×10^5 cells were incubated on ice for 30 minutes with 10 μl APC-conjugated ALPL antibody (R&D Systems), and washed in ice-cold PBS before analysis. Live cells were gated and analyzed in CFlow Plus software and then data was converted to FlowJo to achieve publication-level resolution. For siRNA experiments, gene-specific oligonucleotides were obtained for mouse p38-alpha (Cell Signaling) and p38-beta (Santa Cruz). Signal Silence scramble siRNA control oligonucleotide was purchased from Cell Signaling. C2C12 cells at 70% confluency were transfected in 12-well plates using Lipofectamine RNAiMax reagent (Invitrogen) according to manufacturer's instructions. Transfected cells were treated 24 hours later with DMSO or 10 μM DIPQUO, and siRNA transfection was repeated after 48 hours without changing culture media. After an additional 3 days, cells were either fixed and stained for ALP expression or analyzed for ALP activity using the AttoPhos Substrate kit. Hemagglutinin and FLAG epitope-tagged MKK3 (pMT2-HA-MKK3) and MKK6 (pcDNA3-FLAG-MKK6) constructs were obtained from Addgene and transfected into C2C12 cells using Lipofectamine LTX with Plus Reagent (ThermoFisher) according to manufacturer's instructions and cell extracts analyzed for protein expression and activity as described below.

[2] = test system: alkaline phosphatase (ALP); settings: for RFU Score (10 μM): 154-analog library, C2C12, duplicate
[3] = test system: alkaline phosphatase (ALP); test: cells; settings: Mus musculus; for activation at 10 µM: C2C12, 96 h
[4] = test system: RAW 264.7 murine macrophage cell line; test: Osteoclast differentiation (TRAP staining, qRT-PCR) in RAW 264.7 cells; format: cell-based, mouse; settings: RAW 264.7, 4 days; DIPQUO 10 μM, RANKL 50 ng/ml
Method: To address the specificity of DIPQUO for stimulating an osteogenic versus osteoclastic program, the RAW 264.7 murine macrophage cell line was assayed for osteoclast differentiation by staining for tartrate-resistant acid phosphatase (TRAP) to distinguish multinucleated osteoclasts from macrophages. […] Thus, DIPQUO appears to be primarily supportive of osteogenesis.
The RAW 264.7 macrophage cell line was purchased from ATCC and maintained in DMEM with 10% FBS. Cells were treated with 10 μM DIPQUO or 50 ng/ml RANKL (Sigma) for 4 days. Cells were fixed in 70% acetone/10% formaldehyde/20% citrate and TRAP staining was achieved using the Leukocyte Acid Phosphatase kit (Sigma 387A-1KT).
For quantitative RT-PCR analysis of gene expression in C2C12 cultures, cells were treated for 2 days with 10 μM DIPQUO and harvested into Trizol reagent (Invitrogen). One microgram of RNA was reverse transcribed using the VILO-RT kit (Invitrogen) to generate cDNA, which was diluted 1:25 in RNase-free H2O for qPCR with Sybr green using the Roche 480 II LightCycler and the 2^−ΔΔCT method (Livak and Schmittgen, 2001). For analysis of osteoclast gene expression, RAW 264.7 cells were treated with DMSO, 50 ng/ml RANKL, or 10 μM DIPQUO for 4 days, then harvested into Trizol reagent and processed as above. Mouse qPCR primers are as follows. Runx2: F([…]) (SEQ ID NO:1); R([…]) (SEQ ID NO:2); Dlx5: F([…]) (SEQ ID NO:3); R([…]) (SEQ ID NO:4); Osterix: F([…]) (SEQ ID NO:5); R([…]) (SEQ ID NO:6); ALP: F([…]) (SEQ ID NO:7); R([…]) (SEQ ID NO:8); Osteocalcin: F([…]) (SEQ ID NO:9); R([…]) (SEQ ID NO:10); Osteoactivin: F([…]) (SEQ ID NO:11); R([…]) (SEQ ID NO:12); CTSK: F([…]) (SEQ ID NO:13); R([…]) (SEQ ID NO:14); MMP9: F([…]) (SEQ ID NO:15); R([…]) (SEQ ID NO:16); Gapdh F([…]) (SEQ ID NO:17); R([…]) (SEQ ID NO:18). RNA-seq studies were carried out with the assistance of the Weill Cornell Genomics Core Facility, using the Illumina HiSeq4000 next-generation sequencer to generate reads from cDNA libraries generated from three biological replicates of day 2 DMSO- or DIPQUO-treated C2C12 cells. […]

COC(=O)c1cc2cc(Cl)ccc2[nH]c1=O [BT344]
ALP expression by staining [1]: inert | Fluo. Z Score ([2]; SAR of library and proprietary analogs, AttoPhos assay, C2C12): 0.61 ± 0.47 | EC50 ([3]; C2C12): 920 nM

O=C(O)c1cc2cc(Cl)ccc2[nH]c1=O [BT345]
ALP expression by staining [1]: inert

c1ccc2c(-c3cnn4cc(-c5ccc(N6CCNCC6)cc5)cnc34)ccnc2c1 [LDN193189, reference compound]
effect of inhibitor on BMP-driven ALP expression (staining) ([1]; C2C12, co-treatment with BMP): attenuated BMP activation of ALP expression

Cc1cc(C)c2[nH]c(=O)c(CN3CCCC[C@H](N(C)C)C3)cc2c1 [RU-0424530]
RFU Score (10 μM) [2]: 524 | activation at 10 µM [3]: 8.55%

O=C(c1[nH]cnc1-c1ccccc1)N1CCOC(c2ccc(F)cc2)C1 (centres unmarked) [RU-0424531]
RFU Score (10 μM) [2]: 478 | activation at 10 µM [3]: 6.93%

Cc1cc(C)c2[nH]c(=O)c(CN(C)Cc3ncccc3C)cc2c1 [RU-0424532]
RFU Score (10 μM) [2]: 627 | activation at 10 µM [3]: 12.2%

O=C(NCc1nnc2ccccn12)c1[nH]cnc1-c1ccccc1 [RU-0424533]
RFU Score (10 μM) [2]: 607 | activation at 10 µM [3]: 11.5%

CC(C)CN(C)[C@H]1CN(C(=O)c2[nH]cnc2-c2ccccc2)C[C@@H]1O [RU-0424534]
RFU Score (10 μM) [2]: 638 | activation at 10 µM [3]: 12.6%

Cc1cc(C)c2[nH]c(=O)c(CN3C[C@H]4C(=O)NC[C@@]4(C(=O)O)C3)cc2c1 [RU-0424535]
RFU Score (10 μM) [2]: 518 | activation at 10 µM [3]: 8.32%

Cc1cc(C)c2[nH]c(=O)c(CN3CCCC(c4ncc[nH]4)C3)cc2c1 (centres unmarked) [RU-0424536]
RFU Score (10 μM) [2]: 516 | activation at 10 µM [3]: 8.27%

CNC(=O)[C@@H]1C[C@@H](N)CN1Cc1cc2cc(C)cc(C)c2[nH]c1=O [RU-0424537]
RFU Score (10 μM) [2]: 513 | activation at 10 µM [3]: 8.16%

O=S(=O)(Nc1ncc(-c2[nH]cnc2-c2ccccc2)cn1)c1ccccc1 [RU-0424538]
RFU Score (10 μM) [2]: 533 | activation at 10 µM [3]: 8.87%

Cc1cc(C)c2[nH]c(=O)c(-c3nccn3CCCN(C)C)cc2c1 [RU-0424539]
RFU Score (10 μM) [2]: 565 | activation at 10 µM [3]: 10%

c1ccc(-c2nc[nH]c2-c2cnc(N3CCOCC3)s2)cc1 [RU-0424540]
RFU Score (10 μM) [2]: 603 | activation at 10 µM [3]: 11.4%

Cc1cc(C)c2[nH]c(=O)c(C3CC(=O)Nc4[nH]nc(C(=O)O)c43)cc2c1 (centres unmarked) [RU-0424541]
RFU Score (10 μM) [2]: 646 | activation at 10 µM [3]: 12.9%

CO[C@@]12CC[C@@H](O)C[C@@H]1N(Cc1cc3cc(C)cc(C)c3[nH]c1=O)CC2 [RU-0424542]
RFU Score (10 μM) [2]: 641 | activation at 10 µM [3]: 12.7%

Cc1cc(C)c2[nH]c(=O)c(-c3nccn3C(C)Cn3nc(C)cc3C)cc2c1 (centres unmarked) [RU-0424543]
RFU Score (10 μM) [2]: 363 | activation at 10 µM [3]: 2.86%

c1ccc(-c2nc(-c3[nH]cnc3-c3ccccc3)cs2)cc1 [RU-0424544]
RFU Score (10 μM) [2]: 450 | activation at 10 µM [3]: 5.93%

COc1cccc(-c2[nH]cnc2-c2ccccc2)c1OCCCN(C)C [RU-0424545]
RFU Score (10 μM) [2]: 433 | activation at 10 µM [3]: 5.33%

Cc1cc(C)c2[nH]c(=O)c(CN3CCCn4cncc4C3)cc2c1 [RU-0424546]
RFU Score (10 μM) [2]: 460 | activation at 10 µM [3]: 6.3%

Cc1c(-c2[nH]cnc2-c2ccccc2)c2ccccc2n1CC(N)=O [RU-0424547]
RFU Score (10 μM) [2]: 518 | activation at 10 µM [3]: 8.34%

O=C(NC1CC(=O)N(Cc2ccc(F)cc2)C1)c1[nH]cnc1-c1ccccc1 (centres unmarked) [RU-0424548]
RFU Score (10 μM) [2]: 467 | activation at 10 µM [3]: 6.54%

Cc1cc(C)c2[nH]c(=O)c(-c3ncc[nH]3)cc2c1 [RU-0424549]
RFU Score (10 μM) [2]: 445 | activation at 10 µM [3]: 5.75%

Cc1cc(C)c2[nH]c(=O)c(CN3CCN(C)[C@@H]4CS(=O)(=O)C[C@@H]43)cc2c1 [RU-0424550]
RFU Score (10 μM) [2]: 304 | activation at 10 µM [3]: 0.78%

O=C(c1[nH]cnc1-c1ccccc1)N1CCCC(c2ccn[nH]2)C1 (centres unmarked) [RU-0424551]
RFU Score (10 μM) [2]: 452 | activation at 10 µM [3]: 6%

O=C(NCCc1nnc2n1CCNCC2)c1[nH]cnc1-c1ccccc1 [RU-0424552]
RFU Score (10 μM) [2]: 485 | activation at 10 µM [3]: 7.18%

Cc1cc(C)c2[nH]c(=O)c(CN3CCC(NS(C)(=O)=O)CC3)cc2c1 [RU-0424553]
RFU Score (10 μM) [2]: 454 | activation at 10 µM [3]: 6.08%

CCN(C)Cc1cc2n(n1)CCN(C(=O)c1[nH]cnc1-c1ccccc1)C2 [RU-0424554]
RFU Score (10 μM) [2]: 409 | activation at 10 µM [3]: 4.5%

O=C(O)CCc1cc2n(n1)CCN(C(=O)c1[nH]cnc1-c1ccccc1)C2 [RU-0424555]
RFU Score (10 μM) [2]: 443 | activation at 10 µM [3]: 5.68%

NS(=O)(=O)CC1CCN(C(=O)c2[nH]cnc2-c2ccccc2)C1 (centres unmarked) [RU-0424556]
RFU Score (10 μM) [2]: 435 | activation at 10 µM [3]: 5.4%

COc1cc2c(cc1O)NC(=O)CC2c1cc2cc(C)cc(C)c2[nH]c1=O (centres unmarked) [RU-0424557]
RFU Score (10 μM) [2]: 430 | activation at 10 µM [3]: 5.24%

COC(=O)[C@H]1C[C@@H](O)CCN1Cc1cc2cc(C)cc(C)c2[nH]c1=O [RU-0424558]
RFU Score (10 μM) [2]: 399 | activation at 10 µM [3]: 4.15%

C[C@@H]1CN(Cc2ccc(F)cc2)[C@@H](C)CN1C(=O)c1cc2c(C(=O)C(=O)N(C)C)cn(C)c2cc1Cl [SCI0469, reference compound]
effect of inhibitor on DIPQUO-driven ALP expression (staining) ([1]; C2C12, co-treatment with DIPQUO): attenuated ALP expression in DIPQUO-treated cells

B1: RANKL: Receptor activator of nuclear factor kB ligand, positive control to stimulate osteoclast differentiation (protein, UniProt O14788 140-317, looked up)
Tumor necrosis factor ligand …: IRAEKAMVDGSWLDLAKRSKLEAQPFAHLTINATDIPSGSHKVSLSSWYHDRGWAKISNMTFSNGKLIVNQDGFYYLYANICFRHHETSGDLATEYLQLMVYVTKTSIKIPSSHTLMKGGSTKYWSGNSEFHFYSINVGGFFKLRSGEEISIEVSNPSLLDPDQDATYFGAFKVRDID
TRAP staining of multinucleated osteoclasts [4]: found to promote both TRAP staining
